Laboratory results reported in patent US12559769B2, “Methods and compositions for the activation of tumor cytotoxicity via human gamma-delta t-cells” (priority 2017, dated 2026).

Test system: Vγ9Vδ2 T cells
Experiment: Activation of Vγ9Vδ2 T cells (TNF-α, flow cytometry) by THP-1 monocytic leukemia cells co-cultured with expanded PBMC
Assay type: cell-based, human
Experimental: THP-1 cells (2×10^5 cells) were transduced with LV-control or LV-miR30 FDPS #1 (SEQ ID NO: 68) for 7 days. Cells were treated with or without 1 μM zoledronic acid. After 24 hours, the transduced THP-1 cells were co-cultured for 4 hours with 2×10^5 PBMC cells in 5 mL round-bottom tubes. The PBMC cells had been pre-stimulated with zoledronic acid plus IL-2 for at least 11 days to expand Vγ9Vδ2 T cells. After staining for Vγ9Vδ2 and TNF-α using fluorophore-conjugated anti TCR-Vδ2 and anti-TNF-α antibody, cells were analyzed via flow cytometry. Live cells were gated; Vδ2+ and TNF-α+ cells were identified on a dot blot. The activated cytotoxic Vγ9Vδ2 T cells appeared in the upper right quadrant of the flow cytograms. Without zoledronic acid, LV-control stimulated 2.44% of TNF-α expressing Vγ9Vδ2 T cells and LV-miR30 FDPS #1 (SEQ ID NO: 68) stimulated 28.4%. With zoledronic acid treatment, LV-control stimulated 23.8% of TNF-α expressing Vγ9Vδ2 T cells and LV-miR30 FDPS #1 (SEQ ID NO: 68) stimulated 61.4%.
THP-1 cells were transduced with LV-control or LV-FDPS shRNA #4 (SEQ ID NO: 4) or Lv-GGPS1 shRNA #1 (SEQ ID NO: 70) for 3 days. Two days after transduction, cells were treated with or without 1 μM zoledronic acid. After 24 hours, the transduced THP-1 cells were co-cultured for 4 hours with 5×10^5 PBMC cells in a round bottom 96 well plate. The PBMC cells had been pre-stimulated with zoledronic acid plus IL-2 for at least 11 days to expand Vγ9Vδ2 T cells. After staining for Vγ9Vδ2 and TNF-α using fluorophore-conjugated anti TCR-Vδ2 and anti-TNF-α antibody, cells were analyzed via flow cytometry. Live cells were gated; Vδ2+ and TNF-α+ cells were identified on a dot blot. The activated cytotoxic Vγ9Vδ2 T cells appeared in the upper right quadrant of the flow cytograms. Without zoledronic acid, LV-control stimulated 1.33% of TNF-α expressing Vγ9Vδ2 T cells whereas Lv-FDPS shRNA #4 (SEQ ID NO: 4) stimulated 2.49%, Lv-GGPS1 #1 shRNA (SEQ ID NO: 70) stimulated 1.22%, and both combined stimulated 1.91%. With zoledronic acid treatment, Lv-control stimulated 5.74% of TNF-α expressing Vγ9Vδ2 T cells, whereas Lv-FDPS shRNA #4 (SEQ ID NO: 4) stimulated 10.8%, Lv-GGPS1 shRNA #1 (SEQ ID NO: 70) stimulated 4.5%, and both combined stimulated 11.5%.
ZA is a small molecule inhibitor of squalene synthase in the pathway committed to sterol synthesis. THP-1 cells were treated with either the FDPS inhibitor Zol (10 μM), the famesyl transferase inhibitor FTI (10 μM), or ZA (50 μM) for 24 hours. THP-1 cells (2.5×10^5) were co-cultured with 2.5×10^5 PBMC cells in a round bottom 96 well plate for 5 hours. The PBMC cells had been pre-stimulated with zoledronic acid plus IL-2 for at least 11 days to expand Vγ9Vδ2 T cells. After staining for Vγ9Vδ2 and TNF-α using fluorophore-conjugated anti TCR-Vδ2 and anti-TNF-α antibody, cells were analyzed via flow cytometry. Live cells were gated; Vδ2+ and TNF-α+ cells were identified on a dot blot. The activated cytotoxic Vγ9Vδ2 T cells appeared in the upper right quadrant of the flow cytograms. Untreated cells stimulated 3.08% of TNF-α expressing Vγ9Vδ2 T cells, whereas zoledronic acid treatment stimulated 40.1%, FT1277 treatment stimulated 11.7%, and zaragozic acid stimulated 2.13%.

[1] = Example 24, FIG. 28, THP-1 cells treated 10 μM for 24 hours, untreated cells 3.08%

Compound	percent of TNF-α expressing Vγ9Vδ2 T cells (Example 17, LV-control transduced THP-1 cells, 1 μM zoledronic acid) [%]	percent of TNF-α expressing Vγ9Vδ2 T cells (Example 21, Lv-control transduced THP-1 cells, 1 μM zoledronic acid) [%]	percent of TNF-α expressing Vγ9Vδ2 T cells [1] [%]	percent of TNF-α expressing Vγ9Vδ2 T cells (Example 24, FIG. 28, THP-1 cells treated 50 μM for 24 hours, untreated cells 3.08%) [%]
O=P(O)(O)C(O)(Cn1ccnc1)P(=O)(O)O [zoledronic acid]	23.8	5.74	40.1	–
COC(=O)[C@H](CCSC)NC(=O)c1ccc(NC[C@@H](N)CS)cc1-c1ccccc1 [FT1277]	–	–	11.7	–
C=C(CC[C@]12O[C@H](C(=O)O)[C@@](O)(C(=O)O)[C@](C(=O)O)(O1)[C@H](OC(=O)/C=C/[C@@H](C)C[C@@H](C)CC)[C@H]2O)[C@@H](OC(C)=O)[C@H](C)Cc1ccccc1 [zaragozic acid]	–	–	–	2.13
